Data set [1] has as its system interleukins. The conditions noted are these: cited from earlier work.
In data set [2] the test system is differentiation of cells. The conditions noted are these: cited from earlier work.
The subject of data set [3] is cell proliferation. The conditions noted are these: cited from earlier work.
The conditions of data set [4]: in vivo; cited from earlier work.
For data set [5], the system named is rat intestinal receptor. The conditions noted are these: compared with 1,25(OH)2 D3; cited from earlier work.
Data set [6] has as its system chicken intestinal receptor. As to conditions: compared with 1,25(OH)2 D3; cited from earlier work.
Data set [7] has as its system receptor in a human myeloid leukemia cell line (HL-60). As to conditions: compared with 1,25(OH)2 D3; cited from earlier work.
The subject of data set [8] is HL-60 cells. The conditions noted are these: in vitro; more potent than 1,25(OH)2 D3; cited from earlier work.
For data set [9] the following is noted: in vivo; compared with 1,25(OH)2 D3; cited from earlier work.
The conditions of data set [10]: in vivo; cited from earlier work. This is another data set of the same source.
Data set [11] has as its system cell differentiation. The conditions noted are these: more potent than 1,25(OH)2 D3; cited from earlier work.
Data set [12] has as its system human monocytic tumour cell line. The data set is described as follows: induction of cell differentiation in a human monocytic tumour cell line. The format is cell-based. As to conditions: compared with 1,25(OH)2 D3.
For data set [13] the test system is unchanged. The experiment in a line: inhibition of proliferation of tumour cells. The format is cell-based. The conditions noted are these: compared with 1,25(OH)2 D3.
Data set [14] is described as follows: calcium metabolism in rats (hypercalciuria, hypercalcemia).
Data set [15] deals with cell differentiation. The conditions noted are these: cited from earlier work.
Data set [16] concerns cell proliferation. As to conditions: cited from earlier work. This is another data set of the same source.
For data set [17] the following is noted: cited from earlier work.
Data set [18] deals with intestinal vitamin D receptor. The conditions noted are these: in vitro; compared with 1,25(OH)2 D3; cited from earlier work.

SMILES strings stand for the structures.

Regarding `C=C1/C(=C\C=C2/CCC[C@]3(C)[C@@H]([C@H](C)CCCC(C)(C)O)CC[C@@H]23)C[C@@H](O)C[C@@H]1O` [1,25(OH)2 D3, 1α,25-dihydroxy-vitamin D3], the effect on interleukins entry in data set [1] was “influences the effects and/or production of interleukins”. Besides, the “stimulation of differentiation of cells” value in [2] is listed as “able to stimulate the differentiation of cells”. Further, in data set [3], the “inhibition of excessive cell proliferation” value is “inhibit excessive cell proliferation”. For the same compound, the “effect on calcium metabolism” value in data set [4] was “well known potent effect”.
In the case of `C=C1/C(=C\C=C2/CCC[C@]3(C)[C@@H]([C@H](C)CCCCC(C)(C)O)CC[C@@H]23)C[C@@H](O)C[C@@H]1O` [24-Homo-1,25-dihydroxyvitamin D3], the “binding affinity to the rat intestinal receptor” value in data set [5] is “the same binding affinity as 1,25(OH)2 D3”. Besides, the “binding affinity to the chicken intestinal receptor” value in data set [6] is “the same binding affinity as 1,25(OH)2 D3”. Besides, in data set [7], the “binding affinity to the receptor in HL-60” value is on record as “the same binding affinity as 1,25(OH)2 D3”. Also, the “potency in inducing differentiation of HL-60 cells relative to 1,25(OH)2 D3” value in data set [8] is on record as 10 fold. Moreover, the “potency in calcium metabolism assessments” value in [9] is “significantly less potent”.
Turning to `C=C1/C(=C\C=C2/CCC[C@]3(C)[C@@H]([C@H](C)CCCC(O)(CCC)CCC)CC[C@@H]23)C[C@@H](O)C[C@@H]1O` [26,27-diethyl-1α,25-dihydroxyvitamin D3], the “vitamin D activity (calcium metabolism effects)” value in [10] is “almost no vitamin D activity”. In addition, in data set [11], the “potency in inducing cell differentiation relative to 1,25(OH)2 D3” value is listed as 10 fold.
On to `C=C1/C(=C\C=C2/CCC[C@]3(C)[C@@H]([C@H](C)CCCC(C)(O)CC)CC[C@@H]23)C[C@@H](O)C[C@@H]1O` (some centres unmarked) [26-homo-1,25-dihydroxyvitamin D3], for which the “binding affinity to the rat intestinal receptor” value in [5] is on record as “the same binding affinity as 1,25(OH)2 D3”. Further, the “binding affinity to the chicken intestinal receptor” value in data set [6] is listed as “the same binding affinity as 1,25(OH)2 D3”. In addition, the “binding affinity to the receptor in HL-60” value in data set [7] is “the same binding affinity as 1,25(OH)2 D3”. For the same compound, the “potency in inducing differentiation of HL-60 cells relative to 1,25(OH)2 D3” value in data set [8] is on record as 10 fold. Also, the “potency in calcium metabolism assessments” value in [9] is reported as “more potent”.
Take `C=C1/C(=C\C=C2/CCC[C@]3(C)[C@@H]([C@H](C)CCCCCC(C)(C)O)CC[C@@H]23)C[C@@H](O)C[C@@H]1O` [Compound 36, 1(S),3(R)-Dihydroxy-20(R)-(6-hydroxy-6-methyl-1-heptyl)-9,10-secopregna-5(Z),7(E),10(19)-triene]: in data set [12], the “concentration needed to induce cell differentiation” value is recorded as “the same low concentrations as 1,25(OH)2 D3”. Besides, the “concentration effective in inhibiting proliferation” value in data set [13] is listed as “the same low concentrations as 1,25(OH)2 D3”. For the same compound, in [14], the “in vivo potency on calcium metabolism” value is on record as “lower in vivo potency”.
`C=C1/C(=C\C=C2/CCC[C@]3(C)[C@@H]([C@H](C)CCCCCCC(C)(C)O)CC[C@@H]23)C[C@@H](O)C[C@@H]1O` [Compound 37, 1(S),3(R)-Dihydroxy-20(R)-(7-hydroxy-7-methyl-1-octyl)-9,10-secopregna-5(Z),7(E),10(19)-triene]: the “concentration needed to induce cell differentiation” value in [12] was “the same low concentrations as 1,25(OH)2 D3”. For the same compound, the “concentration effective in inhibiting proliferation” value in [13] is reported as “the same low concentrations as 1,25(OH)2 D3”. In addition, in data set [14], the “in vivo potency on calcium metabolism” value is listed as “lower in vivo potency”.
For the compound `C=C1/C(=C\C=C2/CCC[C@]3(C)[C@@H]([C@H](C)/C=C/CCCCC(C)(C)O)CC[C@@H]23)C[C@@H](O)C[C@@H]1O` [Compound 38], the “concentration needed to induce cell differentiation” value in [12] was “the same low concentrations as 1,25(OH)2 D3”. The “concentration effective in inhibiting proliferation” value in [13] is on record as “the same low concentrations as 1,25(OH)2 D3”. The “in vivo potency on calcium metabolism” value in data set [14] is listed as “lower in vivo potency”.
With `C=C1/C(=C\C=C2/CCC[C@]3(C)[C@@H]([C@H](C)/C=C/CCCC(C)(C)O)CC[C@@H]23)C[C@@H](O)C[C@@H]1O` [Compound 54], the “concentration needed to induce cell differentiation” value in data set [12] was “the same low concentrations as 1,25(OH)2 D3”. Moreover, in data set [13], the “concentration effective in inhibiting proliferation” value is reported as “the same low concentrations as 1,25(OH)2 D3”. The “in vivo potency on calcium metabolism” value in [14] is given as “lower in vivo potency”.
Consider `C=C1/C(=C\C=C2/CCC[C@]3(C)[C@@H]([C@H](C)/C=C/[C@@H](O)C4CC4)CC[C@@H]23)C[C@@H](O)C[C@@H]1O` [MC 903], for which, in data set [15], the “induction of cell differentiation” value was “potent inducer of cell differentiation”. Further, the “inhibition of cell proliferation” value in data set [16] is given as “inhibitor of cell proliferation”. Further, the “activity on calcium metabolism in vivo” value in data set [17] was “only moderate activity”. Besides, the “binding to the intestinal vitamin D receptor” value in [18] is “binds equally well as 1,25(OH)2 D3”.

These data come from US5206229A, “Vitamin D analogues” (Leo Pharmaceutical Products LTD, priority 1988, dated 1993).
